The source of these data is ChEMBL document CHEMBL1141989, “Amino acid conjugates as kappa opioid receptor agonists” (Bioorg Med Chem Lett, 2005).

Where “and” joins values, the source holds several entries; their conditions need not be identical. Equal entries are not always repeated. Where only a bound is given, the exact number is not on record here.

The Ki is a dissociation constant, usually derived from enzyme kinetics or from competition with a known ligand. Higher therefore signals lower affinity. The EC50 is the midpoint of the concentration-response curve.

The target in assay [1] is T1, Kappa-type opioid receptor (Homo sapiens, UniProt P41145). Nature of the assay: In vitro binding affinity for human kappa opioid receptor was determined by using [3H]diprenorphine as radioligand.
T1 sequence (P41145 whole entry): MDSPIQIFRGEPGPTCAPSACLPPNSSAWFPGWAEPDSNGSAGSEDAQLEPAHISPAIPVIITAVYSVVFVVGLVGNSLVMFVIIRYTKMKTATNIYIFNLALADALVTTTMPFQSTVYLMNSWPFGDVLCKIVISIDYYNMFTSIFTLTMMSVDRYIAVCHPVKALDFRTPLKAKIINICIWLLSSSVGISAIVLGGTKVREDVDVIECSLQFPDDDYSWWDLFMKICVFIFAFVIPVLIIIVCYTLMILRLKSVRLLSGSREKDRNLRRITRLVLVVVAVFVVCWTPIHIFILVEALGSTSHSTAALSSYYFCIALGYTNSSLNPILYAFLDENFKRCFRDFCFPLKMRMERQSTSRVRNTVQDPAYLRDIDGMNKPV
The target in assay [2] is Opioid receptors; mu & kappa (Homo sapiens) (UniProt P41145+P35372). The experiment in a line: Selectivity of binding affinity of human kappa opioid receptor over human mu opioid receptor. Type of assay: protein assay.
Opioid receptors; mu & kappa (Homo sapiens), sequence (P35372 whole entry, looked up): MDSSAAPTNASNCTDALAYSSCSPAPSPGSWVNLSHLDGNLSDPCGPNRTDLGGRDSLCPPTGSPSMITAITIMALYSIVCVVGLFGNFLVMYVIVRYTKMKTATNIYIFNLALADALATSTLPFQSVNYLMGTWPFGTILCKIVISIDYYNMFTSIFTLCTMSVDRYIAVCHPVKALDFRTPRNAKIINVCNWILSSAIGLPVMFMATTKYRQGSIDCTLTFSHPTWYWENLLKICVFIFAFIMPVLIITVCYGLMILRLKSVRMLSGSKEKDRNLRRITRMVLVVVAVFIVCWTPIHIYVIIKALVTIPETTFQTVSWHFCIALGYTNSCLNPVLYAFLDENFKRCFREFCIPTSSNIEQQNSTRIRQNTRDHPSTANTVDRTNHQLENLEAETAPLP
Opioid receptors; mu & kappa (Homo sapiens), sequence (P41145 whole entry, looked up): as the sequence (P41145 whole entry) above
Assay [3] addresses T1, Kappa-type opioid receptor. Nature of the assay: In vitro effective concentration towards human kappa opioid receptor was determined using [35S]-GTP-gamma S as radioligand; Not determined. Type of assay: functional. Background: Binding of GTPγS marks nucleotide exchange on a G protein.

In assay [1], `COc1ccc(C(=O)NCC(=O)N(C)[C@H](CN2CC[C@@H](O)C2)c2ccccc2)cc1` showed a Ki of 48 nM. Moreover, the Selectivity in assay [2] is 39 and > 100. In turn, `CN(CC(=O)N(C)[C@H](CN1CC[C@@H](O)C1)c1ccccc1)C(=O)c1ccc(Cl)c(Cl)c1` showed an inhibition constant (Ki) in assay [1] of 20 nM. Also, it took 41.4 nM to reach a half-maximal effect in assay [3] (EC50).

`COc1ccccc1C(=O)NCC(=O)N(C)[C@H](CN1CC[C@@H](O)C1)c1ccccc1` returned a Ki in assay [1] of 2 nM. In addition, the EC50 in assay [3] worked out at 1.98 nM. As for `CN(C(=O)[C@@H](NC(=O)c1ccccc1)c1ccccc1)[C@H](CN1CCCC1)c1ccccc1`, the affinity in assay [1], expressed as Ki, was 99 nM. Compound `COC(=O)N[C@H](C(=O)N(C)[C@H](CN1CCCC1)c1ccccc1)c1ccccc1` came in with an inhibition constant (Ki) in assay [1] of 178 nM. This compound also showed a Selectivity in assay [2] above 100. For `CN(C(=O)[C@H](NC(=O)OCc1ccccc1)c1ccccc1)[C@H](CN1CCCC1)c1ccccc1`, in assay [1], affinity was put at a Ki of 856 nM.

Consider `CN(C(=O)CNC(=O)OCc1ccccc1)[C@H](CN1CCCC1)c1ccccc1`, for which the affinity in assay [1] corresponds to a Ki of 84 nM. Compound `CN(C(=O)[C@@H](NC(=O)OCc1ccccc1)c1ccccc1)[C@H](CN1CCCC1)c1ccccc1` had a Ki in assay [1] of 138 nM. For the same compound, the Selectivity in assay [2] was 22 and 27. `CN(C(=O)CNC(=O)c1ccc2c(c1)no[n+]2[O-])[C@H](CN1CCCC1)c1ccccc1`: the inhibition constant Ki in assay [1] was found to be 4.6 nM. For the same compound, a half-maximal effect in assay [3] (EC50) was put at 4.37 nM.

As to `CN(C(=O)CNC(=O)Cc1ccccc1)[C@H](CN1CCCC1)c1ccccc1`, affinity in assay [1] was put at a Ki of 16.3 nM. The Selectivity in assay [2] is > 100 and 49. On to `CN(C(=O)CNC(=O)c1ccc(Cl)c(Cl)c1)[C@H](CN1CCCC1)c1ccccc1`, for which, in assay [1], the affinity, expressed as Ki, was 3.6 nM. For the same compound, the Selectivity in assay [2] is 34 and 24. Besides, in assay [3], the half-maximal effective concentration (EC50) was determined as 2.25 nM. `CN(C(=O)[C@H](Cc1ccccc1)NC(=O)OCc1ccccc1)[C@H](CN1CCCC1)c1ccccc1` showed an inhibitory constant (Ki) in assay [1] of 150 nM. The Selectivity in assay [2] was 13 and 5. Regarding `CN(C(=O)CNC(=O)c1ccccc1)[C@H](CN1CCCC1)c1ccccc1`, in assay [1], the affinity, expressed as Ki, was 6.7 nM. Besides, in assay [2], the Selectivity was 61 and 50. Moreover, the EC50 in assay [3] is 3.85 nM. Regarding `CN(C(=O)CNC(=O)c1ccc(Cl)c(Cl)c1)[C@H](CN1CC[C@@H](O)C1)c1ccccc1`, the Ki in assay [1] turned out to be 0.83 nM. For the same compound, the concentration for a half-maximal effect (EC50) in assay [3] was 0.76 nM. `CN(C(=O)C(NC=O)c1ccccc1)[C@H](CN1CCCC1)c1ccccc1` (mixture of isomers): the Ki in assay [1] is 258 nM. Further, the Selectivity in assay [2] was 146 and > 100.
